Here are results for 26 molecules from ChEMBL document CHEMBL3997842, “Discovery of novel BTK inhibitors with carboxylic acids” (Bioorg Med Chem Lett, 2017).

Each structure is given as a SMILES string. pIC50: −log10 of the molar value.

One series relates to HeLa. As to the kind of experiment: Inhibition of [3H]-adenosine uptake in human HeLa cells preincubated for 30 mins followed by [3H]-adenosine addition measured after 60 mins by PMT-based radiometric detection method. The class given is cell-based. Conditions: 1 h.
Series [1] in a line: Unbound fraction in rat. It is filed as ADME.
Series [2] addresses T1, Tyrosine-protein kinase BTK (Homo sapiens, UniProt Q06187). As to the kind of experiment: Inhibition of BTK in human PBMC.
The nature of series [3]: Clearance in iv dosed rat. As to conditions: in vivo. It is filed as ADME, organism-based.
For series [4], the target named is Voltage-dependent L-type calcium channel subunit alpha-1C (Homo sapiens, UniProt Q13936). Kind of series: Inhibition of Cav1.2 (unknown origin).
Series [5] concerns the target Voltage-gated inwardly rectifying potassium channel KCNH2 (Homo sapiens, UniProt Q12809). As to the kind of experiment: Inhibition of human ERG.
The nature of series [6]: Clearance in iv dosed dog. Conditions: in vivo. It is filed as ADME, organism-based, Canis lupus familiaris.
A short description of series [7]: Oral bioavailability in dog. It is filed as ADME, organism-based, Canis lupus familiaris. Conditions: in vivo.
In series [8] the target is Sodium channel protein type 5 subunit alpha (Homo sapiens, UniProt Q14524). As to the kind of experiment: Inhibition of Nav1.5 (unknown origin).
Sodium channel protein type 5 subunit alpha, sequence (Q14524 whole entry): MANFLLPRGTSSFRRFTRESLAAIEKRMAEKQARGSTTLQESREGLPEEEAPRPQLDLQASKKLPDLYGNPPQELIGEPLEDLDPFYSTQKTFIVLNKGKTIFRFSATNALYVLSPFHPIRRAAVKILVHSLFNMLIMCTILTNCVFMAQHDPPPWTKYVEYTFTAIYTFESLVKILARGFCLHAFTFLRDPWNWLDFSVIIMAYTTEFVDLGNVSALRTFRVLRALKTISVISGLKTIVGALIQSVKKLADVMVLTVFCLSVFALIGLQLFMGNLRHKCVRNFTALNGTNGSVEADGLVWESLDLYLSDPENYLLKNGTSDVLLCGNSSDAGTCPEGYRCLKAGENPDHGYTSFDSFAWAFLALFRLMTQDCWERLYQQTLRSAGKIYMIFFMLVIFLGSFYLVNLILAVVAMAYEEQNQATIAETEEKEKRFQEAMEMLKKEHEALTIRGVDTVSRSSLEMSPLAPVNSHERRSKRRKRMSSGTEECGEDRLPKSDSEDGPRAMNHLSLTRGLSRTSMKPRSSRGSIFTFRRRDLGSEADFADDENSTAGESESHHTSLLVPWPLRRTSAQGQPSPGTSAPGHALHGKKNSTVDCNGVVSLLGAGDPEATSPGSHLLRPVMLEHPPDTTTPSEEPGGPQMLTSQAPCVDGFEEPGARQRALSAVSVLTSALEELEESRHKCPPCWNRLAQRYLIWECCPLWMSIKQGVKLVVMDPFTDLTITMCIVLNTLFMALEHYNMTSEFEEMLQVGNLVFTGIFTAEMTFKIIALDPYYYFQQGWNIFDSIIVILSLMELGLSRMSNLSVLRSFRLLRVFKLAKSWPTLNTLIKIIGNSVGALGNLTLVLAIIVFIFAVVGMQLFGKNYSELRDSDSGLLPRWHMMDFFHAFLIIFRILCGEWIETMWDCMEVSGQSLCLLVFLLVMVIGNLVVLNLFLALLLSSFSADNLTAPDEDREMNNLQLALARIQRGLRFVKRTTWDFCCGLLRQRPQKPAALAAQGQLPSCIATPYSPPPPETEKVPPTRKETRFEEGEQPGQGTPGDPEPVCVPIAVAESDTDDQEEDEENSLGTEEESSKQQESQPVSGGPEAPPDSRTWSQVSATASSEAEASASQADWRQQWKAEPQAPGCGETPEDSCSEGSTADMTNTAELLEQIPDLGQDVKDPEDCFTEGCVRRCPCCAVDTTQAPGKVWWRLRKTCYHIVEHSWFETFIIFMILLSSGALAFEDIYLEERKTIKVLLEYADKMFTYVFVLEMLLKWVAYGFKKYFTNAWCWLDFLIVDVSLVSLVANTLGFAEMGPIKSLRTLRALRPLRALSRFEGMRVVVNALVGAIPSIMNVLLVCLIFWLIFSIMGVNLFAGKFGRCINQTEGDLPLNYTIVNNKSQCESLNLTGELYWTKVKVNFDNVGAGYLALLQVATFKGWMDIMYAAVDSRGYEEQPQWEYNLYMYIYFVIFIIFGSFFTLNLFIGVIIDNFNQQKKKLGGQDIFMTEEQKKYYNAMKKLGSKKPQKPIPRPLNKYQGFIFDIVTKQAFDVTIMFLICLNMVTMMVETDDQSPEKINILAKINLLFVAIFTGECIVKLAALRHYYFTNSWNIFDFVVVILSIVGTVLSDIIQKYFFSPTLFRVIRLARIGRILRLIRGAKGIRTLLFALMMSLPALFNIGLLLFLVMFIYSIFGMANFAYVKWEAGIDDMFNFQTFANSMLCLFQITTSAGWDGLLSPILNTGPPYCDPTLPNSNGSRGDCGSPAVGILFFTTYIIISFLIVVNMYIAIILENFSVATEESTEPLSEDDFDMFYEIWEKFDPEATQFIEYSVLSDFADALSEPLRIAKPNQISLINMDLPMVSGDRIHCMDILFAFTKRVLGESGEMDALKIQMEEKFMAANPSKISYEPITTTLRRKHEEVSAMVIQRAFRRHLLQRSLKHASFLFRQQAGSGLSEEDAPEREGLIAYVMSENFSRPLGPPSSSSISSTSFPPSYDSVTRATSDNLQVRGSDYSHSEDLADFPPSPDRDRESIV
A short description of series [9]: Oral bioavailability in rat. It is filed as ADME, organism-based. As to conditions: in vivo.
Series [10] can be described thus: Half life in iv dosed dog. It is filed as ADME, organism-based, Canis lupus familiaris. Conditions: in vivo.
For series [11], the target named is T1, Tyrosine-protein kinase BTK. Kind of series: Inhibition of 6-His-tagged recombinant full length BTK (unknown origin) expressed in baculovirus-transfected Sf9 cells using Biotin-EQEDEPEGDYFEWLE-NH2 as substrate preincubated for 60 mins followed by substrate addition measured after 120 mins by LANCE TR-FRET assay. Background: TR-FRET usually uses a lanthanide donor and a delayed reading to cut background.

Series [12] in a line: Half life in iv dosed rat. The class given is ADME, organism-based. Conditions: in vivo.
Series [13] in a line: Apparent permeability of the compound. The class given is physicochemical. As to conditions: not told.
Series [14] in a line: Plasma clearance in rat. It is filed as ADME.
Series [15] can be described thus: Half life in rat. It is filed as ADME. As to conditions: in vivo.

T1 sequence (Q06187 whole entry): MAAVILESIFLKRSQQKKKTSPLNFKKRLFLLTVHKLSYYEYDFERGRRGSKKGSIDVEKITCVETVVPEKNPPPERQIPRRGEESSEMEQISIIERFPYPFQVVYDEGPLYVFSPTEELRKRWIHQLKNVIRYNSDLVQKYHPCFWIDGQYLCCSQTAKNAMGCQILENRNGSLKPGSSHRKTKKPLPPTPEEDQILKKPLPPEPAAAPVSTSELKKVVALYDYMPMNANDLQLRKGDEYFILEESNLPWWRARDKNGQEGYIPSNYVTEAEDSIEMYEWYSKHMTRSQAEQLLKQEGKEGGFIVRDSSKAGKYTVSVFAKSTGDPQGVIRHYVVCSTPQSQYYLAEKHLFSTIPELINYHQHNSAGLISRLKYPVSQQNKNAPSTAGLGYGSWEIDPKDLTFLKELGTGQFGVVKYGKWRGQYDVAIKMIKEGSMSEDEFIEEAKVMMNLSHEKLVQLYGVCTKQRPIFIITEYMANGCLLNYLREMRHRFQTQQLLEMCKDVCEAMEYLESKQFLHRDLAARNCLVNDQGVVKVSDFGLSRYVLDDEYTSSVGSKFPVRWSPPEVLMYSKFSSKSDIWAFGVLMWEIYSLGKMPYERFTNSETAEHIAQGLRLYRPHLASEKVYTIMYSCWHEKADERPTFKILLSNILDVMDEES
Voltage-gated inwardly rectifying potassium channel KCNH2, sequence (Q12809 whole entry): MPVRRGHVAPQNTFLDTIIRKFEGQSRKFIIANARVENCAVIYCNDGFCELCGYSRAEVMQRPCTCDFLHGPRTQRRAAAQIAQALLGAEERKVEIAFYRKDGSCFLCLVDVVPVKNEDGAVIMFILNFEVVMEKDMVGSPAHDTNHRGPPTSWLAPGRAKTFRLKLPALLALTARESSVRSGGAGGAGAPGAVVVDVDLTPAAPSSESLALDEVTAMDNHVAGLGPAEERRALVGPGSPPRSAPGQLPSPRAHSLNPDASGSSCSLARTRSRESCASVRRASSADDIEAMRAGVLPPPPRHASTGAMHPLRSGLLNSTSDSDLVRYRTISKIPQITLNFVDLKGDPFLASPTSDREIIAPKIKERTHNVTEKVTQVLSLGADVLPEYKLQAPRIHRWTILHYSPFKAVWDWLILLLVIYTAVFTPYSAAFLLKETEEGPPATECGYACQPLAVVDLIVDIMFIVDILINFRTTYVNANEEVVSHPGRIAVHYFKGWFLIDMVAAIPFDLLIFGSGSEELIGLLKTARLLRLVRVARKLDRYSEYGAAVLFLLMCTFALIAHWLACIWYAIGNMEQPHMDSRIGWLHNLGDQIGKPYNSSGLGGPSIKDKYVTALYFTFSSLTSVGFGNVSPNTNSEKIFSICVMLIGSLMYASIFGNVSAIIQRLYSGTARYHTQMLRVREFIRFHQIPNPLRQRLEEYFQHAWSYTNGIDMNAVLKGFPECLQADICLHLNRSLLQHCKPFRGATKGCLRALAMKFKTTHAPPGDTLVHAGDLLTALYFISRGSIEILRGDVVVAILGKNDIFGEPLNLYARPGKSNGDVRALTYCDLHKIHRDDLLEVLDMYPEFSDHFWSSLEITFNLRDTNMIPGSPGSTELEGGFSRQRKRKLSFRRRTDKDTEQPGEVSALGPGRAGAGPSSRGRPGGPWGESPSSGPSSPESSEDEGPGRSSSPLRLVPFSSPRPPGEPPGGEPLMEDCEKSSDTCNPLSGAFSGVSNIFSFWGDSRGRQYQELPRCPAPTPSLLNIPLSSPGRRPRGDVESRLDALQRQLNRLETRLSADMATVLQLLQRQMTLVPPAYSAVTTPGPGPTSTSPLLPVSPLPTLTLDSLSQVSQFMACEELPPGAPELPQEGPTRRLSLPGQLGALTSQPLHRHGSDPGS

Regarding `Nc1nccn2c([C@@H]3CCC[C@H](c4n[nH]c(=O)o4)C3)nc(-c3ccc(C(=O)Nc4cc(C(F)(F)F)ccn4)cc3)c12`, in the series with HeLa, the Inhibitory concentration is listed as 44 nM.
As for `C[C@]1(C(=O)O)CCC[C@@H](c2nc(-c3ccc(C(=O)Nc4cc(C(F)(F)F)ccn4)cc3)c3c(N)nccn23)C1` (racemic), the fraction unbound (in general, free concentration divided by total concentration) in [1] came out at 0.002.
With `NC(=O)[C@H]1CCC[C@@H](c2nc(-c3ccc(C(=O)Nc4cc(C(F)(F)F)ccn4)cc3)c3c(N)nccn23)C1`, in the series on HeLa, the Inhibitory concentration was 45 nM.
Still for that read-out and setting: in the case of `C[C@]1(C(=O)O)CC[C@@H](c2nc(-c3ccc(C(=O)Nc4cc(C(F)(F)F)ccn4)cc3)c3c(N)nccn23)C1` it was 5396 nM.
Turning to `C[C@]1(C(=O)O)CC[C@@](C)(c2nc(-c3ccc(C(=O)Nc4cc(C(F)(F)F)ccn4)cc3)c3c(N)nccn32)CC1`, the pIC50 (commonly the negative decadic logarithm of the IC50, by convention in mol/L) in [2] was 7.77; in series [4] it was 4.82; in [5], under 4.22; in [8] it was under 4.52; in series [11], 9.00. Further, the clearance in series [3] and in series [6] was 0.78 L/h/kg in each case. The molecule further registered a fraction unbound in series [1] of 0.001. In addition, the bioavailability (usually the share of a dose that reaches the circulation, judged against a reference dose that is usually intravenous) worked out at 77% in series [7] and 75% in [9]. Also, the half-life (commonly how long it takes for the measured level to halve) was 5.8 h in series [10] and 5 h in [12]. In addition, the Inhibitory concentration in the series on HeLa was 1452 nM.
`Nc1nccn2c1c(-c1ccc(C(=O)Nc3cc(C(F)(F)F)ccn3)cc1)nc2[C@H]1CC[C@H](C(=O)O)CC1` returned an Inhibitory concentration in the series on HeLa of over 10000 nM.
In the case of `Cn1nnc([C@H]2CCC[C@@H](c3nc(-c4ccc(C(=O)Nc5cc(C(F)(F)F)ccn5)cc4)c4c(N)nccn34)C2)n1`, the Papp (as a rule, the rate of passage across a membrane or cell layer, normalised by area and donor concentration) in series [13] was found to be 280 nm/s. Also, in the series on HeLa, the Inhibitory concentration turned out to be 150 nM.
For the molecule `C[C@]1(C(=O)O)CC[C@@](C)(c2nc(-c3ccc(C(=O)Nc4cc(C(F)(F)F)ccn4)cc3)c3c(N)nccn23)C1`, the pIC50 is 8.10 in [2], 4.72 in [4], under 4.52 in series [8] and 9.70 in [11]. In addition, the clearance (usually the volume of plasma or blood freed of the substance per unit of time) in series [3] worked out at 0.12 L/h/kg. In series [1], the fraction unbound was 0.001. In series [9], this molecule had a bioavailability of 39%. For the same molecule, the half-life in [12] is 2.4 h. Moreover, the Inhibitory concentration in the series with HeLa was 1699 nM.
Take `CC(C)[C@@]1(C(=O)O)CC[C@@](C)(c2nc(-c3ccc(C(=O)Nc4cc(C(F)(F)F)ccn4)cc3)c3c(N)nccn23)C1`: the pIC50 in [2] was 7.70; in series [4], 5.10; in series [5] it was under 4.22; in series [8] it was under 4.52; in [11], 9.40. In series [3], this molecule came in with a clearance of 0.168 L/h/kg. Also, the fraction unbound in series [1] was found to be 0.003. The same molecule displayed a bioavailability in series [9] of 44%. The half-life in series [12] is 2 h. The Inhibitory concentration in the series on HeLa amounted to 4010 nM.
With `Nc1nccn2c([C@@H]3CCC[C@H](c4noc(=O)[nH]4)C3)nc(-c3ccc(C(=O)Nc4cc(C(F)(F)F)ccn4)cc3)c12`, the Inhibitory concentration with HeLa was 9086 nM.
As for `Nc1nccn2c(C34CCC(C(=O)O)(CC3)CC4)nc(-c3ccc(C(=O)Nc4cc(C(F)(F)F)ccn4)cc3)c12`, the pIC50 in series [2] is 8.30; in [11], 9.70. This molecule also had an Inhibitory concentration in the series on HeLa of 308 nM.
Regarding `C[C@]1(C(=O)O)CCC[C@@](C)(c2nc(-c3ccc(C(=O)Nc4cc(C(F)(F)F)ccn4)cc3)c3c(N)nccn23)C1`, the pIC50 is 7.74 in series [2], 4.89 in [4], under 4.52 in series [8] and 10.00 in series [11]. Moreover, the clearance in series [3] stood at 0.54 L/h/kg. Besides, in [1], the fraction unbound came out at 0.002. Further, the bioavailability in [9] came out at 22%. Moreover, the half-life in series [12] is 3 h. In addition, the Inhibitory concentration in the series with HeLa is reported as 6073 nM.
As for `Nc1nccn2c1c(-c1ccc(C(=O)Nc3cc(C(F)(F)F)ccn3)cc1)nc2[C@H]1CC[C@@H](C(=O)O)CC1`, the Inhibitory concentration in the series on HeLa was over 10000 nM.
The same measure, in the same setting: the result for `Nc1nccn2c([C@H]3C[C@@H]4[C@H](C3)[C@H]4C(=O)O)nc(-c3ccc(C(=O)Nc4cc(C(F)(F)F)ccn4)cc3)c12` reads 1927 nM.
For `Nc1nccn2c([C@@H]3CCC[C@H](c4nn[nH]n4)C3)nc(-c3ccc(C(=O)Nc4cc(C(F)(F)F)ccn4)cc3)c12`, the Papp in series [13] was determined as 30 nm/s. Moreover, in the series with HeLa, the Inhibitory concentration is recorded as over 10000 nM.
`C[C@H]1CC[C@@H](c2nc(-c3ccc(C(=O)Nc4cc(C(F)(F)F)ccn4)cc3F)c3c(N)nccn23)CN1C(=O)C1CC1` came in with an Inhibitory concentration in the series on HeLa of 110 nM.
As to `Nc1nccn2c(C34CC(C(=O)O)(C3)C4)nc(-c3ccc(C(=O)Nc4cc(C(F)(F)F)ccn4)cc3)c12`, the pIC50 in series [2] was 7.17; in series [11] it was 9.40. The molecule also had an Inhibitory concentration in the series on HeLa of 6476 nM.
On to `CS(=O)(=O)NC(=O)[C@H]1CCC[C@@H](c2nc(-c3ccc(C(=O)Nc4cc(C(F)(F)F)ccn4)cc3)c3c(N)nccn23)C1`, for which the Papp in series [13] was found to be 20 nm/s. Further, in the series with HeLa, the Inhibitory concentration came to 5600 nM.
Regarding `Cn1nnnc1[C@H]1CCC[C@@H](c2nc(-c3ccc(C(=O)Nc4cc(C(F)(F)F)ccn4)cc3)c3c(N)nccn23)C1`, the Papp in [13] stood at 260 nm/s. In the series with HeLa, this molecule returned an Inhibitory concentration of 155 nM.
Turning to `Nc1nccn2c1c(-c1ccc(C(=O)Nc3cc(C(F)(F)F)ccn3)cc1)nc2[C@]12CC[C@](C(=O)O)(CC1)C2`, the figures for the pIC50 in [2] and in [11] were 8.05 and 9.70, respectively. The Inhibitory concentration in the series with HeLa is recorded as 459 nM.
In the case of `Nc1nccn2c([C@@H]3CCC[C@H](C(=O)O)C3)nc(-c3ccc(C(=O)Nc4cc(C(F)(F)F)ccn4)cc3)c12`, the apparent permeability (Papp) in [13] amounted to 70 nm/s. For the same molecule, the pIC50 was under 4.52 in [4], under 4.22 in series [5] and under 4.52 in series [8]. In [14], the clearance was determined as 0.474 L/h/kg. The molecule also gave a bioavailability in series [9] of 2%. Also, the half-life in series [15] was 1.2 h.
For `Nc1nccn2c(C34C5C6C3C3C4C5C63C(=O)O)nc(-c3ccc(C(=O)Nc4cc(C(F)(F)F)ccn4)cc3F)c12` (stereo unspecified), in the series on HeLa, the Inhibitory concentration is listed as 812 nM.
Take `Nc1nccn2c1c(-c1ccc(C(=O)Nc3cc(C(F)(F)F)ccn3)cc1)nc2[C@]12CCC[C@](C(=O)O)(CC1)CC2`: the pIC50 in series [2] is 8.22; in [11] it was 9.52. The molecule further had an Inhibitory concentration with HeLa of 274 nM.
Take `Nc1nccn2c([C@@H]3CCC[C@H](c4nnc[nH]4)C3)nc(-c3ccc(C(=O)Nc4cc(C(F)(F)F)ccn4)cc3)c12`: in series [13], the Papp came to 200 nm/s. In the series on HeLa, this molecule gave an Inhibitory concentration of 168 nM.
In the case of `CCOc1cc(C(=O)Nc2cc(C(F)(F)F)ccn2)ccc1-c1nc(C23CCC(C(=O)O)(CC2)CC3)n2ccnc(N)c12`, the pIC50 in [4] was 4.82; in series [8], under 4.52. The clearance in [14] was 8.34 L/h/kg. For the same molecule, in [9], the bioavailability came to 30%. Besides, the half-life in series [15] is 0.8 h.
For the molecule `CC1(C(=O)O)CCC(c2nc(-c3ccc(C(=O)Nc4cc(C(F)(F)F)ccn4)cc3)c3c(N)nccn23)CC1` (stereo unspecified), the Inhibitory concentration in the series on HeLa is given as 2492 nM.
